Reference: ChEMBL document CHEMBL4138123, “Design, synthesis and biological evaluation of novel pyrazolochalcones as potential modulators of PI3K/Akt/mTOR pathway and inducers of apoptosis in breast cancer cells” (Eur J Med Chem, 2017)

Experiments:
Format in all cases: functional
IGROV-1 = assay: Cytotoxicity against human IGROV1 cells assessed as cell growth at 10 uM after 48 hrs by sulforhodamine B assay relative to control; details: IGROV-1, 48 h, read-out: Activity
NCI-H322M = assay: Cytotoxicity against human NCI-H322M cells assessed as cell growth at 10 uM after 48 hrs by sulforhodamine B assay relative to control; details: read-out: Activity
SF-539 [1] = assay: Cytotoxicity against human SF539 cells assessed as cell growth at 1 uM after 48 hrs by sulforhodamine B assay relative to control; details: SF-539, 48 h, read-out: Activity
SF-539 [2] = assay: Cytotoxicity against human SF539 cells assessed as cell growth at 0.01 uM after 48 hrs by sulforhodamine B assay relative to control; details: SF-539, 48 h, read-out: Activity
OVCAR-5 [3] = assay: Cytotoxicity against human OVCAR5 cells assessed as cell growth at 10 uM after 48 hrs by sulforhodamine B assay relative to control; details: OVCAR-5, 48 h, read-out: Activity
SW-620 = assay: Cytotoxicity against human SW620 cells assessed as cell growth at 0.01 uM after 48 hrs by sulforhodamine B assay relative to control; details: SW-620, 48 h, read-out: Activity
MDA-MB-231 = assay: Cytotoxicity against human MDA-MB-231 cells assessed as cell growth at 100 uM after 48 hrs by sulforhodamine B assay relative to control; details: MDA-MB-231, 48 h, read-out: Activity
T47D [4] = assay: Cytotoxicity against human T47D cells assessed as growth inhibition after 48 hrs by sulforhodamine B assay
HCT-15 = assay: Cytotoxicity against human HCT15 cells assessed as cell growth at 100 uM after 48 hrs by sulforhodamine B assay relative to control; details: HCT-15, 48 h, read-out: Activity
UO-31 = assay: Cytotoxicity against human UO31 cells assessed as cell growth at 0.01 uM after 48 hrs by sulforhodamine B assay relative to control; details: UO-31, 48 h, read-out: Activity
T47D [5] = assay: Cytotoxicity against human T47D cells assessed as cell growth at 1 uM after 48 hrs by sulforhodamine B assay relative to control; details: read-out: Activity
HCT-116 = assay: Cytotoxicity against human HCT116 cells assessed as cell growth at 100 uM after 48 hrs by sulforhodamine B assay relative to control; details: HCT-116, 48 h, read-out: Activity
OVCAR-3 = assay: Cytotoxicity against human OVCAR3 cells assessed as growth inhibition after 48 hrs by sulforhodamine B assay; details: OVCAR-3, 48 h
M14 [6] = assay: Cytotoxicity against human M14 cells assessed as cell growth at 10 uM after 48 hrs by sulforhodamine B assay relative to control; details: M14, 48 h, read-out: Activity
SK-MEL-5 = assay: Cytotoxicity against human SK-MEL-5 cells assessed as cell growth at 10 uM after 48 hrs by sulforhodamine B assay relative to control; details: SK-MEL-5, 48 h, read-out: Activity
M14 [7] = assay: Cytotoxicity against human M14 cells assessed as cell growth at 0.01 uM after 48 hrs by sulforhodamine B assay relative to control; details: M14, 48 h, read-out: Activity
KM12 = assay: Cytotoxicity against human KM12 cells assessed as growth inhibition after 48 hrs by sulforhodamine B assay; details: KM12, 48 h
BT-549 = assay: Cytotoxicity against human BT549 cells assessed as growth inhibition after 48 hrs by sulforhodamine B assay; details: BT-549, 48 h
RXF 393 [8] = assay: Cytotoxicity against human RXF393 cells assessed as cell growth at 100 uM after 48 hrs by sulforhodamine B assay relative to control; details: RXF 393, 48 h, read-out: Activity
HT-29 [9] = assay: Cytotoxicity against human HT-29 cells assessed as cell growth at 10 uM after 48 hrs by sulforhodamine B assay relative to control; details: HT-29, 48 h, read-out: Activity
SK-OV-3 = assay: Cytotoxicity against human SKOV3 cells assessed as cell growth at 1 uM after 48 hrs by sulforhodamine B assay relative to control; details: SK-OV-3, 48 h, read-out: Activity
M14 [10] = assay: Cytotoxicity against human M14 cells assessed as cell growth at 100 uM after 48 hrs by sulforhodamine B assay relative to control; details: M14, 48 h, read-out: Activity
HT-29 [11] = assay: Cytotoxicity against human HT-29 cells assessed as cell growth at 0.1 uM after 48 hrs by sulforhodamine B assay relative to control; details: HT-29, 48 h, read-out: Activity
T47D [12] = assay: Cytotoxicity against human T47D cells assessed as cell growth at 10 uM after 48 hrs by sulforhodamine B assay relative to control; details: read-out: Activity
HOP-62 = assay: Cytotoxicity against human HOP62 cells assessed as growth inhibition after 48 hrs by sulforhodamine B assay; details: HOP-62, 48 h
M14 [13] = assay: Cytotoxicity against human M14 cells assessed as cell growth at 1 uM after 48 hrs by sulforhodamine B assay relative to control; details: M14, 48 h, read-out: Activity
SN12C [14] = assay: Cytotoxicity against human SN12C cells assessed as growth inhibition after 48 hrs by sulforhodamine B assay
SN12C [15] = assay: Cytotoxicity against human SN12C cells assessed as cell growth at 0.01 uM after 48 hrs by sulforhodamine B assay relative to control; details: read-out: Activity
RXF 393 [16] = assay: Cytotoxicity against human RXF393 cells assessed as cell growth at 0.01 uM after 48 hrs by sulforhodamine B assay relative to control; details: RXF 393, 48 h, read-out: Activity
DU-145 = assay: Cytotoxicity against human DU145 cells assessed as cell growth at 100 uM after 48 hrs by sulforhodamine B assay relative to control; details: DU-145, 48 h, read-out: Activity
786-0 [17] = assay: Cytotoxicity against human 786-0 cells assessed as cell growth at 100 uM after 48 hrs by sulforhodamine B assay relative to control; details: 786-0, 48 h, read-out: Activity
SNB-19 = assay: Cytotoxicity against human SNB19 cells assessed as cell growth at 100 uM after 48 hrs by sulforhodamine B assay relative to control; details: SNB-19, 48 h, read-out: Activity
NCI-H226 = assay: Cytotoxicity against human NCI-H226 cells assessed as growth inhibition after 48 hrs by sulforhodamine B assay; details: NCI-H226, 48 h
SR = assay: Cytotoxicity against human SR cells assessed as cell growth at 0.1 uM after 48 hrs by sulforhodamine B assay relative to control; details: read-out: Activity
OVCAR-5 [18] = assay: Cytotoxicity against human OVCAR5 cells assessed as cell growth at 0.1 uM after 48 hrs by sulforhodamine B assay relative to control; details: OVCAR-5, 48 h, read-out: Activity
A498 = assay: Cytotoxicity against human A498 cells assessed as cell growth at 0.01 uM after 48 hrs by sulforhodamine B assay relative to control; details: A498, 48 h, read-out: Activity
786-0 [19] = assay: Cytotoxicity against human 786-0 cells assessed as cell growth at 0.01 uM after 48 hrs by sulforhodamine B assay relative to control; details: 786-0, 48 h, read-out: Activity

Molecule `COc1ccc(-c2cc(/C=C/C(=O)c3ccc(N)cc3)[nH]n2)cc1OC` has a growth at 10 µM (IGROV-1) of 24%, a growth at 10 µM (NCI-H322M) of 24% and a growth at 1 µM (SF-539 [1]) of 88%. The growth at 0.01 µM (SF-539 [2]) was 93%, the growth at 10 µM (OVCAR-5 [3]) was -10% and the growth at 0.01 µM (SW-620) was 99%. The growth at 100 µM (MDA-MB-231) was -77%, the GI50 (T47D [4]) was 4.25 µM and the LC50 (T47D [4]) was > 100 µM. The TGI (T47D [4]) was 26 µM, the growth at 100 µM (HCT-15) was -71% and the growth at 0.01 µM (UO-31) was 92%. The growth at 1 µM (T47D [5]) was 87%, the growth at 100 µM (HCT-116) was -89% and the GI50 (OVCAR-3) was 1.92 µM. For the same molecule, the LC50 (OVCAR-3) was 9.14 µM, the TGI (OVCAR-3) was 4.19 µM and the growth at 10 µM (M14 [6]) was -42%. For the same molecule, the growth at 10 µM (SK-MEL-5) was 6%, the growth at 0.01 µM (M14 [7]) was 95% and the GI50 (KM12) was 1.68 µM. It also gave an LC50 (KM12) of 6.67 µM, a TGI (KM12) of 3.35 µM and a GI50 (BT-549) of 1.5 µM. The LC50 (concentration killing 50% of cells) (BT-549) was 5.77 µM, the TGI (BT-549) was 2.94 µM and the growth at 100 µM (RXF 393 [8]) was -95%. The growth at 10 µM (HT-29 [9]) was -19%, the growth at 1 µM (SK-OV-3) was 97% and the growth at 100 µM (M14 [10]) was -90%. It also gave a growth at 0.1 µM (HT-29 [11]) of 107%, a growth at 10 µM (T47D [12]) of 28% and a GI50 (HOP-62) of 2.8 µM. It also gave an LC50 (HOP-62) of 32 µM, a TGI (HOP-62) of 9.67 µM and a growth at 1 µM (M14 [13]) of 101%. The GI50 (SN12C [14]) was 3.53 µM, the LC50 (SN12C [14]) was 41.3 µM and the TGI (SN12C [14]) was 13.7 µM. The growth at 0.01 µM (SN12C [15]) was 101%, the growth at 0.01 µM (RXF 393 [16]) was 99% and the growth at 100 µM (DU-145) was -100%. It also gave a growth at 100 µM (786-0 [17]) of -97%, a growth at 100 µM (SNB-19) of -91% and a GI50 (NCI-H226) of 2.32 µM. The LC50 (concentration killing 50% of cells) (NCI-H226) was 76.2 µM, the TGI (NCI-H226) was 7.38 µM and the growth at 0.1 µM (SR) was 104%. The growth at 0.1 µM (OVCAR-5 [18]) was 95%, the growth at 0.01 µM (A498) was 95% and the growth at 0.01 µM (786-0 [19]) was 91%.

Work on `COc1cc(-c2cc(/C=C/C(=O)c3ccc(N)cc3)[nH]n2)cc(OC)c1OC` yielded a growth at 10 µM (IGROV-1) of 1%, a growth at 10 µM (NCI-H322M) of -32% and a growth at 1 µM (SF-539 [1]) of 69%. The growth at 0.01 µM (SF-539 [2]) was 92%, the growth at 10 µM (OVCAR-5 [3]) was -66% and the growth at 0.01 µM (SW-620) was 95%. For the same molecule, the growth at 100 µM (MDA-MB-231) was -77%, the GI50 (T47D [4]) was 1.42 µM and the LC50 (T47D [4]) was > 100 µM. For the same molecule, the TGI (T47D [4]) was 4.3 µM, the growth at 100 µM (HCT-15) was -17% and the growth at 0.01 µM (UO-31) was 91%. It also gave a growth at 1 µM (T47D [5]) of 66%, a growth at 100 µM (HCT-116) of -73% and a GI50 (OVCAR-3) of 1.57 µM. The LC50 (OVCAR-3) was 7.26 µM, the TGI (OVCAR-3) was 3.37 µM and the growth at 10 µM (M14 [6]) was -64%. It also gave a growth at 10 µM (SK-MEL-5) of -95%, a growth at 0.01 µM (M14 [7]) of 94% and a GI50 (KM12) of 1.41 µM. The LC50 (KM12) was 7.27 µM, the TGI (KM12) was 2.88 µM and the GI50 (BT-549) was 1.38 µM. For the same molecule, the LC50 (concentration killing 50% of cells) (BT-549) was 5.76 µM, the TGI (BT-549) was 2.82 µM and the growth at 100 µM (RXF 393 [8]) was -86%. For the same molecule, the growth at 10 µM (HT-29 [9]) was -38%, the growth at 1 µM (SK-OV-3) was 104% and the growth at 100 µM (M14 [10]) was -78%. The growth at 0.1 µM (HT-29 [11]) was 102%, the growth at 10 µM (T47D [12]) was -38% and the GI50 (HOP-62) was 1.77 µM. For the same molecule, the LC50 (HOP-62) was 8.7 µM, the TGI (HOP-62) was 3.92 µM and the growth at 1 µM (M14 [13]) was 90%. It also gave a GI50 (SN12C [14]) of 1.86 µM, an LC50 (SN12C [14]) of 13.4 µM and a TGI (SN12C [14]) of 4.52 µM. For the same molecule, the growth at 0.01 µM (SN12C [15]) was 98%, the growth at 0.01 µM (RXF 393 [16]) was 91% and the growth at 100 µM (DU-145) was -98%. It also gave a growth at 100 µM (786-0 [17]) of -90%, a growth at 100 µM (SNB-19) of -94% and a GI50 (NCI-H226) of 1.71 µM. It also gave an LC50 (concentration killing 50% of cells) (NCI-H226) of 7.18 µM, a TGI (NCI-H226) of 3.51 µM and a growth at 0.1 µM (SR) of 87%. For the same molecule, the growth at 0.1 µM (OVCAR-5 [18]) was 103%, the growth at 0.01 µM (A498) was 91% and the growth at 0.01 µM (786-0 [19]) was 92%.
